Measurements from US20080319065A1, “Systemic and Intrathecal Effects of a Novel Series of Phospholipase A2 Inhibitors on Hyperalgesia and Spinal Pge2 Release” (The Regents of the University of California, priority 2005, published 2008).

Key:
[1] = tested on: murine RAW 264.7 macrophage-like cell line; test: Long-term LPS stimulation, PGE2 release; assay type: cell-based; details: low μM range
Protocol: Several 2-oxoamides were tested in the long-term lipopolysaccharide (LPS) stimulation pathway in the murine RAW 264.7 macrophage-like cell line. (Raschke, et al., Cell, 1978, 15, 261-267). This pathway requires GIVA PLA2 activity and results in the extracellular release of many eicosanoid compounds including the prostaglandin PGE2. (Gijon, et al., leukoc. Biol., 1999, 65, 330-336). […] In the low μM range, AX041 and AX073 reduced PGE2 release by roughly 40% (FIG. 1(D)). At 1 μM and 5 μM concentrations, small activations were often seen. The in vitro and cellular results together are consistent with the known roles of GVIA PLA2 given that AX010, a selective GVIA inhibitor, had no cellular effect. […] Inhibitors selective for GIVA PLA2 or dual specificity inhibitors reduce PGE2 levels, also consistent with the known role of GIVA PLA2 in PGE2 production.

[2] = molecular target: T1, Group IVA cPLA2 (GIVA PLA2) (Homo sapiens, UniProt P47712); test: In vitro Group IVA cPLA2 mixed micelle assay; assay type: biochemical
T1 sequence (P47712 1-749): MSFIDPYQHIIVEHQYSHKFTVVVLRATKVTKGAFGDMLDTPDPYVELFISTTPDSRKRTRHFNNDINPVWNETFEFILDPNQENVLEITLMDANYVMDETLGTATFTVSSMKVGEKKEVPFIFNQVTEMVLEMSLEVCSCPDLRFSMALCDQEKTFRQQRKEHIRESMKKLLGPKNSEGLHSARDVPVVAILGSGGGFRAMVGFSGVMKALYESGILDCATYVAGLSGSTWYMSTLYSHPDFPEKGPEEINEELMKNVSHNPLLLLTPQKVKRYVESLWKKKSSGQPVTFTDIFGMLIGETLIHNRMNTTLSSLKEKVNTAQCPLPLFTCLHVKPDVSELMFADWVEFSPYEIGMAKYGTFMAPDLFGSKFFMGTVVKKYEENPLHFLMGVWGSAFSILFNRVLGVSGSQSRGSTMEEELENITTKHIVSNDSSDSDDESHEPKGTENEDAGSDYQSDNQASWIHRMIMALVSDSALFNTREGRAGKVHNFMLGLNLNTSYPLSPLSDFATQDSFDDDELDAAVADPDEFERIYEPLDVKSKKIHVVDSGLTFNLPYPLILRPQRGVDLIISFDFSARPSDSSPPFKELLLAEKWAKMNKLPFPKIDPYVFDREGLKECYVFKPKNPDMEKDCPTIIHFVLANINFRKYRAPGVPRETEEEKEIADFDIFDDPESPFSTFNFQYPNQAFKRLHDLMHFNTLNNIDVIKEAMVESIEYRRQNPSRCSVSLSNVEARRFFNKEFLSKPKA
Protocol: (§1) Numerous 2-oxoamides were tested for inhibition of PLA2s in in vitro assay systems. The data, summarized in Tables 1a, 1b and 2 are represented as XI(50) values unless otherwise noted. XI(50) is defined as the inhibitor concentration that produced 50% inhibition. XI(50) is used as opposed to the more common IC50 because GIVA and GVIA PLA2 are active at a two-dimensional lipid interface rather than in three-dimensional solution. (Deems, Anal. Biochem., 287:1-16, 2000). The 2-oxoamide inhibitors likely partition to the micelle interface and therefore must be represented as a percentage of surface concentration (mole fraction) as opposed to bulk concentration (molar units). (Kokotos, et al., J. Med. Chem., 45:2891-2893, 2002).
(§2) In vitro Group IV cPLA2 and Group VI iPLA2 assays were done as previously described (Kokotos, et al., supra, 2002). Briefly, 100 μM lipid substrate and 100,000 cpm radiolabeled analog were dried down under N2 and dissolved in assay buffer containing 400 μM Triton X-100 to yield a mixed micelle substrate solution. Inhibitors dissolved in DMSO were added to the reaction tubes and allowed to incubate with substrate for five minutes at 40° C. Pure enzyme was added to yield a final volume of 500 μl, and digestion was carried out at 40° C. for 30 minutes. Reactions were quenched and extracted using the Dole method and products were quantified by liquid scintillation counting. Percent inhibition was determined at a range of inhibitor mole fraction concentrations for XI(50) calculations.

[3] = molecular target: T2, Group VIA iPLA2 (GVIA PLA2) (Homo sapiens, UniProt O60733); test: In vitro Group VIA iPLA2 mixed micelle assay; assay type: biochemical
T2 sequence (O60733 1-806): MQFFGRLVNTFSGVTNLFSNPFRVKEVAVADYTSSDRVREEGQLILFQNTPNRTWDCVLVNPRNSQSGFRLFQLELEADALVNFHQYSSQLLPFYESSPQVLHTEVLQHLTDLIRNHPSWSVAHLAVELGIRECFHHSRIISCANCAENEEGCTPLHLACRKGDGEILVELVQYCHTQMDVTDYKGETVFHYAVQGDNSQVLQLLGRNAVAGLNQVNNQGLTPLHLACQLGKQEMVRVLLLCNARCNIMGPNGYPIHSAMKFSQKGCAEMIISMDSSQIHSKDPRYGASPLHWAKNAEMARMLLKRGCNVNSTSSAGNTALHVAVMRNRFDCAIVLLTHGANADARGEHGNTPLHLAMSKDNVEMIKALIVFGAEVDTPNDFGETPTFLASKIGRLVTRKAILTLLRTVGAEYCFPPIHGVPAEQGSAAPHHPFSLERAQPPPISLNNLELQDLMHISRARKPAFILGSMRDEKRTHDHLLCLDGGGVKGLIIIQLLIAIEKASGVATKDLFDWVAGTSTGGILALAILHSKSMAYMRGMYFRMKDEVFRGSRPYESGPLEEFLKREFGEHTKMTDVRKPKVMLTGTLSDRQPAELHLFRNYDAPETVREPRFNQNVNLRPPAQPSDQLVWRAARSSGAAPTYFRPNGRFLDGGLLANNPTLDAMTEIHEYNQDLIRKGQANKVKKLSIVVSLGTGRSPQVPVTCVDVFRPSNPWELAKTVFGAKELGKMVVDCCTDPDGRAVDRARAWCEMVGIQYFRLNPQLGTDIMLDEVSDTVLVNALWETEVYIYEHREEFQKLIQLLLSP
Protocol: as §1, §2

GV sPLA2 = molecular target: T3, GV sPLA2 (Homo sapiens, UniProt P39877); test: GV sPLA2 activity assay; assay type: biochemical; details: at 0.091 mole fraction
T3 sequence (P39877 21-138): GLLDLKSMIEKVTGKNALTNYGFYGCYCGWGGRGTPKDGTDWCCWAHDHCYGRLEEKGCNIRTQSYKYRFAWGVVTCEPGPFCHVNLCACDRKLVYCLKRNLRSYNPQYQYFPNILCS
Protocol: GV sPLA2 activity was measured in a similar assay. The final assay buffer was composed of 50 mM Tris-HCl (pH 8.0) and 5 mM CaCl2. Each assay was performed in 500 μL total volume made up of 100 μL of 5× substrate solution (20 μL of 10 mM Triton X-100 and 80 μL assay buffer), 390 μL assay buffer, 10 μL GV sPLA2 solution (1 μL of 40 ng/μL stock and 9 μL assay buffer), and 5 μL of DMSO or 2-oxoamide in DMSO. The 5× substrate solution was prepared by drying down the phospholipids (in organic solvent) with N2. The appropriate volume of 10 mM Triton X-100 was added, heated and vortexed until clear. Then assay buffer was added to make a 5× substrate solution. The final mixed micelles were at 400 μM Triton X-100 and 100 μM DPPC (of which 100,000 cpm of ^14C-DPPC).

GVIA PLA2 = molecular target: T4, GVIA PLA2 (Homo sapiens, UniProt O60733); test: Time dependence and reversibility of GVIA PLA2 inhibition; assay type: biochemical
T4 sequence (O60733 1-806): T2 sequence (O60733 1-806)
Protocol: GVIA PLA2 (25 ng) was preincubated with either AX010 or AX0073 (5 μM) for 0, 5, 15 or 30 minutes and then assayed in the standard GVIA PLA2 assay mix containing 5 μM inhibitor. The final concentration of the inhibitors in the assay mix was 0.01 mole fraction, and the samples were incubated for 30 minutes at 40° C. […] In the latter respect, 25 ng of GVIA PLA2 was pre-incubated with 10 μM AX010 or AX073 for 10 minutes before diluting the enzyme 1:50 into the standard GVIA PLA2 assay mix lacking inhibitor, and incubating for 30 minutes at 40° C. The final inhibitor concentration in these assays was 0.0004 mole fraction, well below surface concentrations that either AX010 or AX073 inhibit the enzyme.

COX-1 and COX-2 proteins = test: COX Activity Assay kit, in vitro cyclooxygenase activity; assay type: biochemical; details: 50 μM
Protocol: Inhibitors dissolved in DMSO (study compounds) or ethanol (indomethacin) were added to 50 μM final concentration and allowed to incubate with the assay mixture including enzyme for 5 minutes. After addition of TMPD and arachidonic acid, samples were mixed and allowed to incubate 5 minutes at room temperature before reading absorbance at 595 nm to determine results. Results were calculated and percent inhibition values derived.

| Structure (SMILES) | reduction of PGE2 release [1] | Inhibition of GIVA PLA2, XI(50) [2] | Inhibition of GVIA PLA2, XI(50) [3] | efficacy against sPLA2 (GV sPLA2) [%] | reversibility of GVIA PLA2 inhibition (GVIA PLA2; pre-incubated with 10 μM for 10 minutes, diluted 1:50, final 0.0004 mole fraction) | time-dependent inhibition of GVIA PLA2 (GVIA PLA2; preincubated 0, 5, 15 or 30 minutes, 5 μM inhibitor, 0.01 mole fraction) | melting point [°C] | inhibition of cyclooxygenase activity (COX-1 and COX-2 proteins) |
| --- | --- | --- | --- | --- | --- | --- | --- | --- |
| CCCCCCCCC=CCCCCCCCC(=O)C(=O)NCCCC(=O)OC [AX041, 4-(2-Oxo-nonadec-10-enoylamino)-butyric acid methyl ester] | roughly 40% |  |  |  |  |  |  |  |
| CCCCCCCCCCCCCCC(=O)C(=O)NC(C=CC(=O)OC)CCCC (stereo not drawn) [AX073, 4-(2-Oxo-hexadecanoylamino)-oct-2-enoic acid methyl ester] | roughly 40% | XI(50) =0.018 ± 0.010 mole fraction | XI(50) =0.032 ± 0.010 mole fraction | 75.3 | freely reversible inhibitors | no increased potency with prolonged incubation | 48 to 50 |  |
| COc1ccc2c(c1)c(CC(=O)O)c(C)n2C(=O)c1ccc(Cl)cc1 [indomethacin, reference compound] |  |  |  |  |  |  |  | near complete inhibition |
